Common to all, as to assay type: cell-based, human
One experiment deals with A2058 cells (BRAF V600E). Put plainly: Proliferation inhibition (CellTiter-Glo), A2058. The conditions noted are these: A2058, 3 days; read-out: A2058 Prolif. EC50. As for the experimental part:
(§1) All cancer cell lines (A375, A101D, A2058, RKO, HT29 SK-MEL 30, IPC298, HepG2, HCT-116, Lovo, SWV620, SW480, NCI-H358, NCI-H2122, Calu-6, NCIH2087, NCIH1755, NCIH1666 and Mewo) were obtained from ATCC and cultured in RPMI-1640 medium (Gibco) supplemented with 5% heat inactivated fetal bovine serum (FBS, Wisent) at 37° C. under 5% CO2. Cells were maintained in T175 flasks (Greiner). They were passaged by removing the culture medium, washing once in 10 mL of room temperature Phosphate Buffered Saline (PBS; Wisent) and incubating at 37° C. with 2 mL of 0.05% Trypsin (Thermo-Fisher). […]
(§2) After 3 days of incubation, the growth media were removed by aspiration and 60 μL of diluted CellTiter-Glo® reagent (10 μL CellTiter-Glo® reagent+50 μL of PBS) was added to each well. […] Luminescence signals were then acquired on a Synergy Neo2 plate reader (Biotek).
(§3) The effect of each compound dilution on the proliferation of cancer cell lines was expressed in % inhibition and calculated as follows. […]
(§4) The ability of each compound to inhibit proliferation was expressed as a EC50 value obtained by plotting the effect values for each data point of a dilution series and fitting the obtained curves using a log(agonist) versus response-variable slope (four parameters) function using GraphPadPrism (V7.0) or Dotmatics Screening Ultra platform.

A further experiment concerns A101D cells (BRAF V600E). Put plainly: Proliferation inhibition (CellTiter-Glo), A101D. To be noted: 3 days, read-out: A101D Prolif. EC50. As for the experimental part:
as §1, §2, §3, §4
A general note: In ATP-based viability assays light output follows the ATP content of the culture.

Experiment [1] concerns pERK in RAS-mutant cancer cell lines. Put plainly: Phospho-ERK inhibition (AlphaLISA), panel of RAS-mutant cancer cell lines. The conditions noted are these: in 10 of the 13 RAS-mutant cell lines tested. The method, then: as §1
After treatment, media was removed and cells were lysed in 50 μL of 1× AlphaScreen Ultra Lysis Buffer (Perkin Elmer). […] After completion of the reactions, the signals were recorded on an EnVision plate reader (Perkin Elmer) using built in AlphaLISA® settings.
The effect of each compound dilution on the pERK signal was expressed in % inhibition and calculated as follows. […]
The ability of each compound to inhibit pERK signal was expressed as an IC50 value obtained by plotting the inhibition values for each data point of a dilution series and fitting the obtained curves using a log(agonist) versus response-variable slope (four parameters) function using GraphPadPrism (V7.0) or Dotmatics Screening Ultra platform. […]
A general note: Bead proximity is the source of the signal in Alpha formats.

Experimental findings from patent US12139488B2, “Pyrido[3,2-d]pyrimidine compounds uses thereof for treating a proliferative disease” (Universite de Montreal, priority 2021, dated 2024) are described below.

`CC1(O)CCN(c2cccc3c2ncn3-c2ccc3ncnc(Nc4c(F)ccc(NS(=O)(=O)c5cccc(Cl)c5Cl)c4F)c3n2)CC1` [Example 524]: the EC50 with A2058 cells (BRAF V600E) and in the experiment on A101D cells (BRAF V600E) was under 30 nM in each case.

On to `Nc1cccc2c1ncn2-c1ccc2ncnc(Nc3c(F)ccc(NS(=O)(=O)c4cccc(Cl)c4Cl)c3F)c2n1` [Example 99], for which the EC50 in the experiment with A2058 cells (BRAF V600E) and in the experiment on A101D cells (BRAF V600E) was under 30 nM each time.

On to `Cc1ccc2c(Nc3cccc(Cl)c3F)nccc2c1NC(=O)c1csc2c(N)ncnc12` [Belvarafenib, reference compound], for which, in experiment [1], the “YMIN of pERK IC50 curves” value is given as under −30%.

Broadly, the EC50 is the concentration that produces a half-maximal response.
